Test results from patent US11352606B2, “Low oxygen tension enhances endothelial fate of human pluripotent stem cells” (THE JOHNS HOPKINS UNIVERSITY, priority 2014, dated 2022).

System: VEcad and CD31 mRNA expression in EVCs
Settings: DPI days 3-6, 5% O2, after 12 days
Protocol: Real-time quantitative RT-PCR. Two-step reverse transcription polymerase chain reaction (RT-PCR) was performed on differentiated and undifferentiated (day 0) hPSCs as previously described in accordance with Applied Biosystems manufacturer instructions (Kusuma et al., The FASEB Journal. 2012; 26:4925-4936). For each primer set (CD34, KDR, CD56, VEcad, CD31, ephrinB2, EphB4, Nrp1, Nrp2), the comparative […] method (Applied Biosystems, Foster City, Calif.) was used to calculate the amplification differences between different samples. The values for experiments were averaged and graphed with standard deviations.
ROS detection and inhibition. Previously published protocols were followed to detect and inhibit ROS production (Abaci et al., American Journal of Physiology—Cell Physiology. 2011; 301:C431-C440). For ROS detection, the culture media was replaced with 10 μM 2′,7′-dichlorodihydrofluorescein diacetate (H2-DCFDA) (Invitrogen) in PBS and incubated for 30 min at 37° C. Samples were washed with PBS three times prior to imaging. For ROS inhibition, cells were treated with diphenyleneiodonium (DPI) (Sigma-Aldrich) at a concentration of 10 μM.
DPI-treated cells were maintained in 5% O2 conditions for the second six days of differentiation but without DPI.

[1] = RT-PCR normalized to control (atmospheric) EVCs

## c1ccc2c(c1)[I+]c1ccccc1-2 [DPI, diphenyleneiodonium]
  CD31 expression compared to EVCs differentiated in 5% O2 without DPI: significantly lower
  VEcad expression compared to EVCs differentiated in 5% O2 without DPI: significantly lower
[1]
  expression of CD31 compared to control EVCs: lower
  expression of VEcad compared to control EVCs: similar
